Where two headings read alike, the source gives them in different places. Starred links: 1 amine or outer side, 2 acyl side, 3 side chain; linkers in the order of their positions; H or OH if unused. Non-standard residues stand in square brackets, D forms with d. Residues, ends and D or L forms follow the SMILES beside them. *: point of attachment. Phe(4-CH2SO3H) = N[C@@H](Cc1ccc(CS(=O)(=O)O)cc1)C(=O)O; C20 diacid = O=C(O)CCCCCCCCCCCCCCCCCCC(=O)*; sY = N[C@@H](Cc1ccc(OS(=O)(=O)O)cc1)C(=O)O; C18 diacid = O=C(O)CCCCCCCCCCCCCCCCC(=O)*; γGlu = O=C(O)[C@H](CCC(=O)[*:2])N[*:1]; 1Nal = N[C@@H](Cc1cccc2ccccc12)C(=O)O; C14 diacid = O=C(O)CCCCCCCCCCCCC(=O)*; NMeF = CN[C@@H](Cc1ccccc1)C(=O)O; dNMeD = CN[C@H](CC(=O)O)C(=O)O; Nle = CCCC[C@H](N)C(=O)O; AEEA = NCCOCCOCC(=O)O
Target: T1, human cholecystokinin-2 receptor (CCK-2R) (Homo sapiens, UniProt P32239)
T1 construct: host or cells: 1321-N1 cells (plasma membranes prepared by Evotec AG Hamburg)
T1 sequence (P32239 1-447): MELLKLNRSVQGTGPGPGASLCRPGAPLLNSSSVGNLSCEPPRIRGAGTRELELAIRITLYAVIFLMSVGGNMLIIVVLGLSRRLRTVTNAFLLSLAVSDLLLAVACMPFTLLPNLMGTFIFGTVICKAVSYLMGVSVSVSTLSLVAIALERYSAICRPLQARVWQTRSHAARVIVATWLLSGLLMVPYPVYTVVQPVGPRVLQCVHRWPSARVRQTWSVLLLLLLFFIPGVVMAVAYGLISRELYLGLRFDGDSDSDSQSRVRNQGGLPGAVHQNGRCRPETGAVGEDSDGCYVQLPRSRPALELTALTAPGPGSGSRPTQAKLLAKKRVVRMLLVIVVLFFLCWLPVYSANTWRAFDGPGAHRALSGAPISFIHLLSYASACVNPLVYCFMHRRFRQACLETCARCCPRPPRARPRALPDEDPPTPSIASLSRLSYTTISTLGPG
Assay: In vitro receptor binding to CCK-2R, SPA displacement of [125I]-CCK-8s from plasma membranes

[1] = displacement of [125I]-CCK-8s, plasma membranes of 1321-N1 cells expressing CCK-2R, highest dose tested 1×10^7 pM, read-out: IC50 (CCK-2R)

SMILES	IC50 [1] [µM]	IC50 [µM]
CCCC[C@H](NC(=O)[C@H](Cc1c[nH]c2ccccc12)NC(=O)CNC(=O)[C@H](CC(C)C)NC(=O)[C@H](Cc1ccc(CS(=O)(=O)O)cc1)NC(=O)[C@H](CC(=O)O)NC(=O)COCCOCCNC(=O)COCCOCCNC(=O)CC[C@H](NC(=O)CCCCCCCCCCCCC(=O)O)C(=O)O)C(=O)N(C)[C@H](CC(=O)O)C(=O)N(C)[C@@H](Cc1ccccc1)C(N)=O [Example 34, 2-[2-[2-[[2-[2-[2-[[(4S)-4-Carboxy-4-(13-carboxytridecanoylamino)butanoyl]amino]ethoxy]ethoxy]acetyl]amino]ethoxy]ethoxy]acetyl-Asp-Phe(4-sulfomethyl)-Leu-Gly-Trp-Nle-DMeAsp-MePhe-amide] ({C14 diacid-γGlu-AEEA-AEEA}-D[Phe(4-CH2SO3H)]LGW[Nle][dNMeD][NMeF]-NH2)	> 10	
CCCC[C@H](NC(=O)[C@H](Cc1c[nH]c2ccccc12)NC(=O)CNC(=O)[C@H](CC(C)C)NC(=O)[C@H](Cc1ccc(CS(=O)(=O)O)cc1)NC(=O)[C@H](CC(=O)O)NC(=O)COCCOCCNC(=O)COCCOCCNC(=O)CC[C@H](NC(=O)CCCCCCCCCCCCCCCCCCC(=O)O)C(=O)O)C(=O)N(C)[C@H](CC(=O)O)C(=O)N(C)[C@@H](Cc1ccccc1)C(N)=O [Example 35, 2-[2-[2-[[2-[2-[2-[[(4S)-4-Carboxy-4-(19-carboxynonadecanoylamino)butanoyl]amino]ethoxy]ethoxy]acetyl]amino]ethoxy]ethoxy]acetyl-Asp-Phe(4-sulfomethyl)-Leu-Gly-Trp-Nle-DMeAsp-MePhe-amide] ({C20 diacid-γGlu-AEEA-AEEA}-D[Phe(4-CH2SO3H)]LGW[Nle][dNMeD][NMeF]-NH2)	> 10	
CCCC[C@H](NC(=O)[C@H](Cc1ccc(CS(=O)(=O)O)cc1)NC(=O)[C@H](CC(=O)O)NC(=O)COCCOCCNC(=O)COCCOCCNC(=O)CC[C@H](NC(=O)CCCCCCCCCCCCCCCCC(=O)O)C(=O)O)C(=O)NCC(=O)N[C@@H](Cc1c[nH]c2ccccc12)C(=O)N[C@@H](CCCC)C(=O)N(C)[C@H](CC(=O)O)C(=O)N(C)[C@@H](Cc1ccccc1)C(N)=O [Example 3, 2-[2-[2-[[2-[2-[2-[[(4S)-4-Carboxy-4-(17-carboxyheptadecanoylamino)butanoyl]amino]ethoxy]ethoxy]acetyl]amino]ethoxy]ethoxy]acetyl-Asp-Phe(4-sulfomethyl)-Nle-Gly-Trp-Nle-DMeAsp-MePhe-amide] ({C18 diacid-γGlu-AEEA-AEEA}-D[Phe(4-CH2SO3H)][Nle]GW[Nle][dNMeD][NMeF]-NH2)		> 10
CCCC[C@H](NC(=O)[C@H](Cc1ccc(OS(=O)(=O)O)cc1)NC(=O)[C@H](CC(=O)O)NC(=O)COCCOCCNC(=O)COCCOCCNC(=O)CC[C@H](NC(=O)CCCCCCCCCCCCCCCCC(=O)O)C(=O)O)C(=O)NCC(=O)N[C@@H](Cc1c[nH]c2ccccc12)C(=O)N[C@@H](CCCC)C(=O)N(C)[C@H](CC(=O)O)C(=O)N[C@@H](Cc1cccc2ccccc12)C(N)=O [Example 2, 2-[2-[2-[[2-[2-[2-[[(4S)-4-Carboxy-4-(17-carboxyheptadecanoylamino)butanoyl]amino]ethoxy]ethoxy]acetyl]amino]ethoxy]ethoxy]acetyl-Asp-sTyr-Nle-Gly-Trp-Nle-DMeAsp-1Nal-amide] ({C18 diacid-γGlu-AEEA-AEEA}-D[sY][Nle]GW[Nle][dNMeD][1Nal]-NH2)	1	

Source: patent US20170008928A1, “NOVEL PEPTIDES AND PEPTIDE DERIVATIVES AND USES THEREOF” (Novo Nordisk A/S, priority 2015, published 2017)
